The GI50 is the concentration at which growth is held to half of that of the control. Broadly, the TGI is the concentration at which net growth stops. High values mean less potent growth arrest, low ones more potent growth arrest.

“And” between values parts separate entries of the source, which are not always exact repeats. Identical values can stand only once.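 Results reflect a 48-hour exposure of cells in 96-well plates to compound at five concentrations. The concentration for 50% growth inhibition is given as GI50. TGI marks complete inhibition of growth.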

Common to all, as to experiment: DTP human tumour cell line panel, 48 h
In test [1] the test system is T-47D breast.
Test [2] relates to OVCAR-8 ovarian.
For test [3], the system named is SNB-19 CNS.
The test system of test [4] is IGROV1 ovarian.
In test [5] the test system is SK-MEL-28 melanoma.
Test [6] deals with SK-MEL-2 melanoma.
Test [7] has as its system DU-145 prostate.
The subject of test [8] is LOX IMVI melanoma.
The test system of test [9] is MDA-MB-231 breast.
Test [10] relates to SK-MEL-5 melanoma.

For `CCSCC1CC(O)(c2ccccc2)CC(c2ccc(F)cc2)O1` (stereo not drawn), the GI50 is 2.23 µM in [1]; 2.95 µM in [2]; 2.63 µM in [3]; 2.12 µM in [4]; 2.15 µM in test [5]; 1.79 µM in [6]. The GI50 in test [7] is 2.66 µM; in test [8], 1.6 µM; in test [9] it was 1.98 µM; in [10] it was 1.74 µM. Moreover, the TGI in test [1] turned out to be 8.24 µM; in test [2], 8.79 µM; in [3], 9.36 µM; in test [4] it was 5.75 µM; in test [5] it was 4.44 µM; in test [6], 3.53 µM. Besides, the TGI in test [7] amounted to 7.17 µM; in [8], 2.94 µM; in test [9], 4.39 µM; in test [10], 3.16 µM.
Take `CCN1C/C(=C\c2cc(OC)c(OC)cc2OC)C(=O)/C(=C/c2cc(OC)c(OC)cc2OC)C1`: the GI50 in [1] is 2.96 µM; in [2] it was 3.43 µM; in [3], 4.23 µM; in [4], 3.06 µM; in test [5], 2.48 µM; in test [6] it was 2.29 µM. For the same compound, the GI50 in test [7] is 1.85 µM; in test [8], 2.25 µM; in test [9], 3.66 µM; in test [10], 1.59 µM. The TGI in test [1] was above 100 µM; in [2], above 100 µM; in test [3] it was 23.7 µM; in test [4], 11.2 µM; in test [5] it was 5.6 µM; in test [6] it was 7.87 µM. In addition, the TGI in test [7] was 4.12 µM; in [8] it was 5.55 µM; in [9], 12 µM; in test [10], 3.53 µM.
`CC(C)C1=CC(=O)C(C)(C2C(O)CC3(C)C4CC=C5C(CCC(OC6OC(CO)C(O)C(O)C6OC6OC(C)C(O)C(O)C6O)C5(C)C)C4(C)C(=O)CC23C)O1` (stereo not drawn): the TGI in [1], in [2], in [3], in test [4], in test [5] and in [7] was above 100 µM in each case. Further, the TGI in [9] and in test [10] was above 100 µM in each case.
Turning to `O=C1CSCc2sccc21`, the TGI in test [1], in test [2], in test [3], in test [4], in test [5] and in test [6] was above 100 µM in each case. In addition, the concentration for total growth inhibition (TGI) in test [7], in test [9] and in test [10] was above 100 µM throughout.
Turning to `COc1cc2c(cc1OC)[C@@H](Nc1ccc(C#N)cc1)C1COC(=O)[C@@H]1C2c1cc(OC)c(O)c(OC)c1` (stereo partly drawn), the TGI in test [1] was above 100 µM; in [3], 95 µM; in [4] it was 95 µM and > 100 µM; in [5] it was 95 µM and > 100 µM; in test [6] it was 23 µM and 5.86 µM; in test [7] it was above 100 µM. The TGI in test [9] was 6.67 µM; in [10] it was 14.3 µM and 2.53 µM. Also, the GI50 in test [2] is 0.472 µM and 1.55 µM; in test [4], 7.06 µM and 5.07 µM; in test [5] it was 3.4 µM and 6.94 µM; in test [6], 3.7 µM and 1.49 µM; in test [10], 0.499 µM and 0.292 µM.
As for `c1ccc2sc(SCCSc3nc4ccccc4s3)nc2c1`, the TGI in test [1], in test [2], in test [3], in test [4], in test [5] and in test [6] was above 100 µM throughout. Also, the TGI in test [7], in [8] and in test [9] was above 100 µM throughout.
Take `Cc1nc2ccc(Nc3nc(Cl)nc(N4CCOCC4)n3)cc2n1Cc1ccccc1`: the GI50 is 3.27 µM in test [1]; 2.95 µM in test [2]; 18.2 µM in test [3]; 2.58 µM in test [4]; 1.75 µM in test [5]; 3.54 µM in test [6]. Besides, the GI50 in [7] was 28.1 µM; in [9] it was 2.22 µM. Besides, the TGI in test [1] was above 100 µM; in test [2], above 100 µM; in test [3] it was above 100 µM; in test [4], 6.41 µM; in [5], 3.29 µM; in [6], 26 µM. For the same compound, the values for the TGI in [7] and in test [9] were above 100 µM and 9.44 µM, respectively.
On to `NNC(=S)N/N=C(\C(=O)Nc1cccc(O)c1)C1C(=O)NC(=S)NC1=O`, for which the TGI in test [1], in test [2], in [3], in test [4], in test [5] and in test [6] was above 100 µM each time. The TGI in test [8], in test [9] and in test [10] was above 100 µM throughout.
As to `Cc1cc(O)c(=O)cc2c1C[C@H]1CC(C)(C)/C=C/C[C@]3(C)Oc4cc(=O)c(O)cc(C)c4C[C@H]3C[C@H](O)[C@@]1(C)O2`, the 50% growth inhibitory concentration (GI50) in test [1] is below 0.01 µM; in [2], below 0.01 µM; in test [3] it was below 0.01 µM; in test [4] it was 0.025 µM; in test [5], 0.0423 µM; in [7], below 0.01 µM. The 50% growth inhibitory concentration (GI50) in [9] was 0.0322 µM; in test [10] it was 0.0166 µM. The TGI in test [1] is 0.0949 µM; in test [2], 11.6 µM; in test [3] it was above 67.3 µM; in [4], 7.46 µM; in [5] it was 19.9 µM; in [7] it was above 75.9 µM. Further, the TGI in test [9] is 50.3 µM; in [10], 0.0985 µM.
As for `O=C(Oc1cccc2cccnc12)c1cc2c(cc1Cl)SC(N(c1ccc(F)cc1)S(=O)(=O)c1ccc(Br)s1)=NS2(=O)=O`, the GI50 in [1] was 4.93 µM; in test [3] it was 28.8 µM; in test [4], 60.3 µM; in test [5], 40.9 µM; in [6], 34.3 µM; in [7], 27.3 µM. The GI50 in [8] was 15.8 µM; in test [9] it was 23.6 µM; in [10], 18.2 µM. Further, the TGI was 38.9 µM in test [1]; above 100 µM in test [3]; above 100 µM in [4]; above 100 µM in [5]; above 100 µM in test [6]; above 100 µM in test [7]. Further, the TGI in test [8] was 64.2 µM; in test [9], above 100 µM; in test [10] it was 39.8 µM.

Values taken from PubChem BioAssay (NCI).
